Measurements taken from patent publication US20250099448A1, “HETEROCYCLIC COMPOUNDS” (Hoffmann-La Roche Inc., priority 2022, published 2025).

Biological target: T1, MAGL protein (Homo sapiens, UniProt Q99685)
T1 sequence (Q99685 1-303): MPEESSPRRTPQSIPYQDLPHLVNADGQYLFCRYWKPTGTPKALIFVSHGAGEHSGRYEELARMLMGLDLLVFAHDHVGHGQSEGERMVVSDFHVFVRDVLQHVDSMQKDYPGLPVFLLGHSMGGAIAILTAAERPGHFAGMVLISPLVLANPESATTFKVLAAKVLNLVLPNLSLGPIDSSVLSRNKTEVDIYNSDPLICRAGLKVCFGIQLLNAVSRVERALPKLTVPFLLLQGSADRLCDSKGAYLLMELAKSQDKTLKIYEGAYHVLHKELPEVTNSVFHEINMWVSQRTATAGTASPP
Experiment: 2-AG assay: MAGL inhibitory activity by hydrolysis of 2-arachidonoylglycerol to arachidonic acid, followed by mass spectrometry
Type: biochemical
Conditions: 8 μM 2-arachidonoylglycerol, 15 min preincubation, 30 min reaction at RT, RapidFire MS readout
Summary of the method: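 MAGL was preincubated 15 min at RT with compound (12.5 to […], 3-fold steps) in 50 mM TRIS, 1 mM EDTA, 0.01% Tween-20, 2.5% DMSO. The reaction ran 30 min at RT with 8 μM 2-AG. Arachidonic acid was quantified by RapidFire SPE-MS/MS against a d8-arachidonic acid internal standard.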

| SMILES | IC50 [nM] |
| --- | --- |
| O=C(N1CC2(CC(NS(=O)(=O)c3cccc(C(F)(F)F)c3)C2)C1)N1CC2(CC(c3nnc(C4CC4)[nH]3)C2)C1 [compound 56] | 0.74 |
| O=C(N1CC2(CC(Nc3ccc(C(F)(F)F)nn3)C2)C1)N1CC2(CC(c3nnc(C4CC4)[nH]3)C2)C1 [compound 57] | 25.7 |
| O=C(N1CC2(CCC(OCC3(C(F)(F)F)CC3)CC2)C1)N1CC2(CC(c3nnc(C4CC4)[nH]3)C2)C1 [compound 65] | 1.46 |
| O=C(N1CC2(CC(OCC3(C(F)(F)F)CC3)C2)C1)N1CC2(CC(c3nnc(C4CC4)[nH]3)C2)C1 [compound 68] | 5.36 |
| O=C(N1CC2(CC(NC3(C(F)(F)F)CC3)C2)C1)N1CC2(CC(c3nnc(C4CC4)[nH]3)C2)C1 [compound 70] | 7.25 |
| O=C(NC1(C(F)(F)F)CC1)C1CC2(C1)CN(C(=O)N1CC3(CC(c4nnc(C5CC5)[nH]4)C3)C1)C2 [compound 72] | 157 |
| O=C(N1CC2(CCC(Oc3ccnc(C(F)(F)F)n3)CC2)C1)N1CC2(CC(c3nnc(C4CC4)[nH]3)C2)C1 [compound 73] | 3.24 |
| O=C(N1CC2(CCC(Oc3cnc(C(F)(F)F)cn3)CC2)C1)N1CC2(CC(c3nnc(C4CC4)[nH]3)C2)C1 [compound 74] | 0.77 |
| CS(=O)(=O)c1ccc(CC2CCC3(C2)CN(C(=O)N2CC4(CC(c5nnc(C6CC6)[nH]5)C4)C2)C3)cc1 (stereo not drawn) [compound 77] | 0.69 |
| O=C(N1CC(c2ccc(N3CCS(=O)(=O)CC3)nc2)C1)N1CC2(CC(c3nnc(C4CC4)[nH]3)C2)C1 [compound 80] | 58.3 |
| O=C(N1CC(c2ccc(NC3CCS(=O)(=O)C3)nc2)C1)N1CC2(CC(c3nnc(C4CC4)[nH]3)C2)C1 (stereo not drawn) [compound 81] | 28.2 |
| CC1(O)CN(c2ccc(C3CN(C(=O)N4CC5(CC(c6nnc(C7CC7)[nH]6)C5)C4)C3)cn2)C1 [compound 82] | 20.5 |
| O=C(N1CC2(CC(c3nnc(C4CC4)[nH]3)C2)C1)N1CC2(CC(N3CC(C(F)(F)F)C3)C2)C1 [compound 83] | 25.7 |
| O=C(N1CC2(CC(c3nnc(C4CC4)[nH]3)C2)C1)N1CC2(CC(N3CC(CC(F)(F)F)C3)C2)C1 [compound 84] | 32.7 |
| O=C(N1CC2(CCN(Cc3ccc(S(=O)(=O)C(F)(F)F)cc3)CC2)C1)N1CC2(CC(c3nnc(C4CC4)[nH]3)C2)C1 [compound 85] | 1.02 |
| O=C(N1CC2(CC(c3nnc(C4CC4)[nH]3)C2)C1)N1CC2(CN(Cc3ccc(S(=O)(=O)C(F)(F)F)cc3)C2)C1 [compound 86] | 0.92 |
| O=C(N1CC2(CC(c3nnc(C4CC4)[nH]3)C2)C1)N1CC2(C1)CN(S(=O)(=O)c1cccc(OC(F)(F)F)c1)C2 [compound 87] | 8.21 |

| SMILES | IC50 [nM] |
| --- | --- |
| O=C(N1CC2(CC(c3nnc(C4CC4)[nH]3)C2)C1)N1CC2(CC[C@H](Oc3cnc(C(F)(F)F)cn3)C2)C1 [compound 90] | 7.88 |
| O=C(N1CC2(CC(c3nnc(C4CC4)[nH]3)C2)C1)N1CC2(C1)CN(S(=O)(=O)c1ccc(OC(F)(F)F)cc1)C2 [compound 91] | 4.05 |
| O=C(N1CC2(CC(c3nnc(C4CCC4)[nH]3)C2)C1)N1CC2(C1)CN(S(=O)(=O)c1ccc(OC(F)(F)F)cc1)C2 [compound 93] | 143 |
| O=C(N1CC2(CC(c3nnc(C4CC4)[nH]3)C2)C1)N1CC2(C1)CN(S(=O)(=O)c1ccccc1OC(F)(F)F)C2 [compound 94] | 3.88 |
| O=C(N1CC2(CC(c3nnc(C4CC4)[nH]3)C2)C1)N1CC2(C1)CN(S(=O)(=O)c1ccccc1C(F)(F)F)C2 [compound 96] | 2.94 |
| O=C(N1CC2(CC(c3nnc(C4CC4)[nH]3)C2)C1)N1CC2(C1)CN(S(=O)(=O)c1ccc(F)cc1C(F)(F)F)C2 [compound 98] | 1.92 |
| O=C(N1CC2(CC(c3nnc(C4CC4)[nH]3)C2)C1)N1CC2(C1)CN(S(=O)(=O)c1cc(F)cc(C(F)(F)F)c1)C2 [compound 101] | 3.7 |
| O=C(N1CC2(CC(c3nnc(C4CC4)[nH]3)C2)C1)N1CC2(C1)CN(S(=O)(=O)c1ccc(F)c(C(F)(F)F)c1)C2 [compound 102] | 15 |
| O=C(N1CC2(CC(c3nnc(C4CC4)[nH]3)C2)C1)N1CC2(C1)CN(S(=O)(=O)c1ccc(C(F)(F)F)cc1)C2 [compound 103] | 25 |
| O=C(N1CC2(CC(c3nnc(C4CC4)[nH]3)C2)C1)N1CC2(C1)CN(S(=O)(=O)c1ccc(F)cc1F)C2 [compound 105] | 21.3 |
| O=C(N1CC2(CC(c3nnc(C4CC4)[nH]3)C2)C1)N1CC2(C1)CN(S(=O)(=O)c1ccc(F)c(F)c1)C2 [compound 106] | 20.6 |
| O=C(N1CC2(CC(c3nnc(C4CC4)[nH]3)C2)C1)N1CC2(C1)CN(S(=O)(=O)c1ccc(F)cc1Cl)C2 [compound 107] | 3.14 |
| COc1ccccc1S(=O)(=O)N1CC2(CN(C(=O)N3CC4(CC(c5nnc(C6CC6)[nH]5)C4)C3)C2)C1 [compound 108] | 34.1 |
| O=C(N1CC2(CC(c3nnc(C4CC4)[nH]3)C2)C1)N1CC2(C1)CN(S(=O)(=O)c1cncc(C(F)(F)F)c1)C2 [compound 109] | 20.1 |
| O=C(N1CC2(CC(Cc3cncc(Cl)c3)C2)C1)N1CC2(CC(c3nnc(C4CC4)[nH]3)C2)C1 [compound 113] | 0.09 |
| O=C(N1CC2(CC(Cc3ncc(F)cc3F)C2)C1)N1CC2(CC(c3nnc(C4CC4)[nH]3)C2)C1 [compound 115] | 0.2 |
| O=C(N1CC2(CC(Cc3ncc(F)cc3Cl)C2)C1)N1CC2(CC(c3nnc(C4CC4)[nH]3)C2)C1 [compound 117] | 0.1 |

Next, values leading:

| IC50 [nM] | SMILES |
| --- | --- |
| 22 | O=C(N1CC2(CC(CNC3(C(F)(F)F)CC3)C2)C1)N1CC2(CC(c3nnc(C4(O)CC4)[nH]3)C2)C1 [compound 55] |
| 0.53 | O=C(N1CC2(CC(Cc3nc(C(F)(F)F)ns3)C2)C1)N1CC2(CC(c3nnc(C4CC4)[nH]3)C2)C1 [compound 59] |
| 4.03 | O=C(N1CC2(CC(Cc3nc(C(F)(F)F)ns3)C2)C1)N1CC2(CC(c3nnc(C4(O)CC4)[nH]3)C2)C1 [compound 60] |
| 0.66 | O=C(N1CC2(CC(Cc3nc(C(F)(F)F)co3)C2)C1)N1CC2(CC(c3nnc(C4CC4)[nH]3)C2)C1 [compound 61] |
| 8.06 | O=C(N1CC2(CC(Cc3nc(C(F)(F)F)co3)C2)C1)N1CC2(CC(c3nnc(C4(O)CC4)[nH]3)C2)C1 [compound 62] |
| 3.59 | O=C(N1CC2(CC(Cn3cnc(C(F)(F)F)c3)C2)C1)N1CC2(CC(c3nnc(C4CC4)[nH]3)C2)C1 [compound 63] |
| 37.9 | O=C(N1CC2(CC(Cn3cnc(C(F)(F)F)c3)C2)C1)N1CC2(CC(c3nnc(C4(O)CC4)[nH]3)C2)C1 [compound 64] |
| 1.91 | O=C(N1CC2(CCC(OCC3(C(F)(F)F)CC3)CC2)C1)N1CC2(CC(c3nnc(C4(O)CC4)[nH]3)C2)C1 [compound 66] |
| 5.86 | O=C(N1CC2(CC(c3cnc(C(F)(F)F)cn3)C2)C1)N1CC2(CC(c3nnc(C4CC4)[nH]3)C2)C1 [compound 67] |
| 21.3 | O=C(N1CC2(CC(OCC3(C(F)(F)F)CC3)C2)C1)N1CC2(CC(c3nnc(C4(O)CC4)[nH]3)C2)C1 [compound 69] |
| 1.74 | O=C(N1CC2(CC(Cn3cnc(C(F)(F)F)n3)C2)C1)N1CC2(CC(c3nnc(C4CC4)[nH]3)C2)C1 [compound 71] |
| 5.55 | O=C(N1CC2(CC(Oc3cnc(C(F)(F)F)cn3)C2)C1)N1CC2(CC(c3nnc(C4CC4)[nH]3)C2)C1 [compound 75] |
| 38 | O=C(N1CC2(CC(Oc3cnc(C(F)(F)F)cn3)C2)C1)N1CC2(CC(c3nnc(C4(O)CC4)[nH]3)C2)C1 [compound 76] |
| 3.92 | O=C(N1CC2(CC(Oc3ccc(C(F)(F)F)nn3)C2)C1)N1CC2(CC(c3nnc(C4CC4)[nH]3)C2)C1 [compound 78] |
| 43.4 | O=C(N1CC2(CC(Oc3ccc(C(F)(F)F)nn3)C2)C1)N1CC2(CC(c3nnc(C4(O)CC4)[nH]3)C2)C1 [compound 79] |
| 44 | O=C(N1CC2(CC(c3nnc(C4(O)CC4)[nH]3)C2)C1)N1CC2(C1)CN(S(=O)(=O)c1ccc(OC(F)(F)F)cc1)C2 [compound 92] |
| 47.5 | O=C(N1CC2(CC(c3nnc(C4(O)CC4)[nH]3)C2)C1)N1CC2(C1)CN(S(=O)(=O)c1ccccc1OC(F)(F)F)C2 [compound 95] |
| 27.9 | O=C(N1CC2(CC(c3nnc(C4(O)CC4)[nH]3)C2)C1)N1CC2(C1)CN(S(=O)(=O)c1ccccc1C(F)(F)F)C2 [compound 97] |
| 66.1 | O=C(N1CC2(CC(c3nnc(C4(O)CC4)[nH]3)C2)C1)N1CC2(C1)CN(S(=O)(=O)c1cccc(C(F)(F)F)c1)C2 [compound 100] |
| 198 | O=C(N1CC2(CC(c3nnc(C4(O)CC4)[nH]3)C2)C1)N1CC2(C1)CN(S(=O)(=O)c1ccc(C(F)(F)F)cc1)C2 [compound 104] |
| 0.21 | O=C(N1CC2(CC(Cc3ccc(C(F)(F)F)cn3)C2)C1)N1CC2(CC(c3nnc(C4CC4)[nH]3)C2)C1 [compound 110] |
| 0.6 | O=C(N1CC2(CC(Cc3ccc(C(F)(F)F)cn3)C2)C1)N1CC2(CC(c3nnc(C4(O)CC4)[nH]3)C2)C1 [compound 111] |
| 2.04 | O=C(N1CC2(CC(Cc3ccc(C(F)(F)F)cn3)C2)C1)N1CC2(CC(c3nnc(C4CCC4)[nH]3)C2)C1 [compound 112] |
| 0.22 | O=C(N1CC2(CC(Cc3cncc(C(F)(F)F)c3)C2)C1)N1CC2(CC(c3nnc(C4CC4)[nH]3)C2)C1 [compound 114] |
| 2.39 | O=C(N1CC2(CC(Cc3ncc(F)cc3F)C2)C1)N1CC2(CC(c3nnc(C4(O)CC4)[nH]3)C2)C1 [compound 116] |
| 0.19 | O=C(N1CC2(CC(Cc3cc(C(F)(F)F)ccn3)C2)C1)N1CC2(CC(c3nnc(C4CC4)[nH]3)C2)C1 [compound 118] |
